Assay results: patent US20040167189A1, “Materials and methods for inhibiting Wip1” (The Government of the U.S.A., as Represented by the …, priority 2002, published 2004)
“And” between values parts separate entries of the source, which are not always exact repeats. Identical values can stand only once. Like-named read-outs stand apart in the source and are kept apart here.

T1: phosphoserine peptide substrate (LRRApSLG)
T1 chain: LRRASLG

B1: recombinant full-size human Wip1 enzyme with His-Tag on the NH2 terminus (protein)
chain: MAGLYSLGVSVFSDQGGRKYMEDVTQIVVEPEPTAEEKPSPRRSLSQPLPPRPSPAALPGGEVSGKGPAVAAREARDPLPDAGASPAPSRCCRRRSSVAFFAVCDGHGGREAAQFAREHLWGFIKKQKGFTSSEPAKVCAAIRKGFLACHLAMWKKLAEWPKTMTGLPSTSGTTASVVIIRGMKMYVAHVGDSGVVLGIQDDPKDDFVRAVEVTQDHKPELPKERERIEGLGGSVMNKSGVNRVVWKRPRLTHNGPVRRSTVIDQIPFLAVARALGDLWSYDFFSGEFVVSPEPDTSVHTLDPQKHKYIILGSDGLWNMIPPQDAISMCQDQEEKKYLMGEHGQSCAKMLVNRALGRWRQRMLRADNTSAIVICISPEVDNQGNFTNEDELYLNLTDSPSYNSQETCVMTPSPCSTPPVKSLEEDPWPRVNSKDHIPALVRSNAFSENFLEVSAEIARENVQGVVIPSKDPEPLEENCAKALTLRIHDSLNNSLPIGLVPTNSTNTVMDQKNLKMSTPGQMKAQEIERTPPTNFKRTLEESNSGPLMKKHRRNGLSRSSGAQPASLPTTSQRKNSVKLTMRRRLRGQKKIGNPLLHQHRKTVCVC

Legend:
recombinant Wip1 = recombinant Wip1 (Homo sapiens, UniProt O15297); conditions: for relative effectiveness as Wip1 inhibitor (in words): at the concentration of 0.25 μM;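 on all read-outs here: recombinant His-tagged Wip1 dephosphorylating a phosphoserine peptide for 1 h at 30 °C, read by fluorescence quench (ex 560, em 590 nm), signal rising with dephosphorylation, DMSO-only reactions as control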
From the text: Phosphatase activity of Wip1 was monitored with IQ™ Phosphatase Assay Kit (Pierce, Rockford, Ill.). […] At the end of phosphatase reaction, the labeled peptide population contains a mixture of phosphorylated and nonphosphorylated peptide species. The iron-containing compound binds specifically to the phosphorylated peptide present and its fluorescence is quenched. The observed relative fluorescence units increase in proportion to the extent of dephosphorylation of the phosphopeptide. The standard phosphatase assay was performed by incubating 0.2 μg recombinant Wip1 in the buffer, containing 20 mM MOPS, pH 7.0, 20 mM MgCl2, and 30 μM of phosphoserine peptide substrate (LRRApSLG) at 30° C. for 1 hour. The reaction was terminated by addition of 60 μl IQ™ Working Solution. Fluorescent intensity was measured on the Fluorometer at 560/590 ex/em. Compounds (2 ml) from a chemical library of potential Wip1 inhibitors dissolved in 50% DMSO were added to fmal concentration of 10, 1, 0.5, or 0.2 μM. Control reactions contained only 6% DMSO.
Wip1 activity was measured in the presence of 1990 chemical compounds, 10 μM final concentration each.

[1] = target: T1, phosphoserine peptide substrate …
[2] = compound at 0.25 μm, DMSO control 740
[3] = compound at 0.5 μm, DMSO control 740
[4] = compound at 1 μm, DMSO control 725
[5] = compound at 10 μm, DMSO control 1400

Molecule | Wip1 Activity (recombinant Wip1; [2]) | Wip1 Activity (recombinant Wip1; [3]) | Wip1 Activity (recombinant Wip1; [4]) | Wip1 Activity (recombinant Wip1; [5]) | other results
O=[N+]([O-])c1ccc(S(=O)(=O)Cc2ccccc2)c2nonc12 [Compound A] | 745 light units @ 590 nm | 725 light units @ 590 nm | 250 light units @ 590 nm | 0 light units @ 590 nm | 
O=C(O)C=Cc1ccc[c]([Sb](=[O])([OH])[OH])c1 [Compound B] | 740 light units @ 590 nm | 723 light units @ 590 nm | 575 light units @ 590 nm | 0 light units @ 590 nm | 
Nc1nc(Sc2ccc([N+](=O)[O-])c3nonc23)c2nc[nH]c2n1 [Compound C] | 745 light units @ 590 nm | 750 light units @ 590 nm | 610 light units @ 590 nm | 0 light units @ 590 nm | 
CN(C)CN1CSC(=S)N(CN(C)C)C1 [Compound D] | 750 light units @ 590 nm | 740 light units @ 590 nm | 595 light units @ 590 nm | 0 light units @ 590 nm | 
CC(=NN=C([S-])SCc1ccccc1)c1ccccn1.[Cl-].[Cu+2] [Compound F] | 740 light units @ 590 nm | 695 light units @ 590 nm | 100 light units @ 590 nm | 0 light units @ 590 nm | 
Nc1nc([S][Hg][c]2cc([N+](=O)[O-])ccc2O)c2ncn(C3OC(CO)C(O)C3O)c2n1 (centres unmarked) [Compound H] | 675 light units @ 590 nm | 690 light units @ 590 nm | 225 light units @ 590 nm | 0 light units @ 590 nm | 
O=C(O)c1c(Br)c(Br)c(Br)c(Br)c1C1c2ccc(O)cc2Oc2cc(O)ccc21 [Compound I] | 625 light units @ 590 nm | 710 light units @ 590 nm | 250 light units @ 590 nm | 0 light units @ 590 nm | 
O=C(O)c1cc[c]([Hg][S]c2ncnc3nc[nH]c23)cc1 [Compound K] | 630 light units @ 590 nm | 680 light units @ 590 nm | 300 light units @ 590 nm | 0 light units @ 590 nm | 
CC1=C(Br)C(=O)C(C)=C(Br)C1=O [Compound L] | 375 light units @ 590 nm | 220 light units @ 590 nm | 60 light units @ 590 nm | 0 light units @ 590 nm | activity of Wip1 in the presence of compound (in words) (recombinant Wip1; 1 μM final concentration): nearly not detectable; Phosphatase Activity (Wip1) (recombinant Wip1; Compound L at 1 μM final concentration, DMSO control 500): 5 light units @ 590 nm; relative effectiveness as Wip1 inhibitor (in words) (recombinant Wip1): most effective inhibitors; decrease of the activity of PP2A (phosphatase PP2A; 1 μM final concentration): 5%; Phosphatase Activity (PP2A) (phosphatase PP2A; Compound L at 1 μM final concentration, DMSO control 760): 690 light units @ 590 nm
Nc1cc[c]([Hg][S]c2nc(N)nc3c2ncn3C2OC(CO)C(O)C2O)cc1 (centres unmarked) [Compound M] | 525 light units @ 590 nm | 400 light units @ 590 nm | 145 light units @ 590 nm | 0 light units @ 590 nm | relative effectiveness as Wip1 inhibitor (in words) (recombinant Wip1): most effective inhibitors
O=C1C(Cl)=C(Nc2ccc(S(=O)(=O)Nc3ccccn3)cc2)C(=O)c2ccccc21 [Compound N] |  |  |  | 0 light units @ 590 nm | Wip1 Activity (recombinant Wip1): 645 light units @ 590 nm and 710 light units @ 590 nm and 550 light units @ 590 nm
B1 |  |  |  |  | Phosphatase Activity (light units @ 590 nm), DMSO control (light units @ 590 nm) [1]: 500; Wip1 Activity (light units @ 590 nm), DMSO control (light units @ 590 nm) [1]: 1400 and 725 and 740
